# Data from paper PMC6675551, “Mass spectrometry–driven exploration reveals nuances of neoepitope-driven tumor rejection” (JCI Insight, 2019).
# Experiments:
# [1] = test system: Meth A fibrosarcoma tumor cells; experiment: Tumor rejection after immunization with neoepitope-pulsed BMDCs and Meth A challenge; type: in vivo, BALB/cJ mice; conditions: for Tumor rejection activity (in words): immunized twice 1 week apart with neoepitope-pulsed BMDCs (3 × 10^6), challenge with 95,000 Meth A cells 1 week later, CTLA4 blockade except TGAARFDEF
# Text: The 8 MS-defined neoepitopes were used to immunize naive BALB/cJ mice twice, 1 week apart, with neoepitope-pulsed bone marrow–derived dendritic cells (BMDCs, 3 × 10^6) as adjuvants, as previously published ([22]). All mice were challenged with 95,000 Meth A tumor cells 1 week after the second immunization, and tumor growth was monitored in individual mice (Figure 2, A and B). […] The TCI score parameterizes the tumor rejection, tumor inhibition, and tumor stability scores to produce a total TCI score, which reflects the control of the tumor growth in each group.
# Day 7 BMDCs were pulsed with 40 μg of the neoepitope (1 μL of a 20 mM neoepitope solution was added to 7.5 million BMDCs in 200 μL RPMI medium for final peptide concentration of 100 μM). The pulsed BMDCs were washed 4 times and used to immunize a single mouse. Mice were randomized before being used for immunization with individual peptides to control for any cage effects. All immunizations were performed in the presence of CTLA4 blockade, using the […] (clone 9D9, Bio X Cell), administered with the second immunization and every 3 days after tumor challenge except for peptide TGAARFDEF. Tumor diameters were measured in 2 dimensions and the average diameter determined.
# TCI quantitates and integrates all 3 aspects of tumor growth: inhibition, period of tumor size stability, and tumor shrinkage (complete response), as published previously ([23]).
# tetramer+ CD8+ T cells [2] = experiment: Tetramer staining of CD8+ T cells in immunized naive non-tumor-bearing mice; type: in vivo, BALB/cJ mice; conditions: for CD8+ T cell response by tetramer staining (in words): immunized naive, non-tumor-bearing mice; for Tetramer+ cells of total CD8+ T cells, blood: blood harvested 1 week after second immunization
# Procedure: In parallel, naive, non–tumor-bearing mice immunized with the neoepitopes were tested for CD8^+ T cell responses to 7 of the 8 neoepitopes. ELISpot assays could not be performed because of the high background generated by incubation of T cells with any DCs. […] Tetramer staining was therefore used for better sensitivity and specificity (Figure 2D). (Tetramers against the neoepitope MAPVRTASM derived from Aebp1 gene could not be made.) Blood and the spleen of the immunized mice were harvested 1 week after the second immunization and stained for CD3, CD8, as well as specific binding to neoepitope tetramers (Figure 2, D and E). Of the 2 neoepitopes able to strongly elicit tumor rejection (TGAARFDEF and AYMKMLSSSL), only TGAARFDEF elicited a measurable CD8^+ T cell response as detected by tetramer staining. […] Of these, the response elicited by VGPEILSSL (derived from Trib3) was the strongest CD8^+ T cell response among all neoepitopes; approximately 10% of the CD8^+ T cells (in blood) in mice immunized with it were tetramer^+. As controls, we measured, in 2 instances, tetramer response in mice immunized with an irrelevant neoepitope; such nonspecific response was never detected.
# (§1) The antibody specific for Fixable Viability Dye eFluor 780 was purchased from eBioscience. PE tetramer specific for each neoepitope was synthesized, validated, and tested by MBL International Corporation. Tetramer testing was performed prior to product release according to standard operating procedures of MBL, and the tetramers were further tested for specificity in our laboratory. The FITC-labeled antibody specific for CD8 (clone KT15) was purchased from the same company. BV510 CD3 (clone 17A2) was purchased from Biolegend. Mouse FcR blocking reagent was purchased from Miltenyi Biotec. Flow cytometry was performed using Miltenyi Biotec MACSQuant analyzer. The analysis was done using FlowJo software (FlowJo LLC).
# tetramer+ CD8+ T cells [3] = experiment: Tetramer staining of CD8+ T cells in non-immunized tumor-bearing mice; type: in vivo, BALB/cJ mice; conditions: unimmunized Meth A tumor-bearing mice, blood and spleen
# Procedure: Thus, of the 7 neoepitopes tested, 4 neoepitopes elicited expansion of tetramer^+ CD8^+ T cells on immunization of naive, non–tumor-bearing mice (Figure 2E). We now examined CD8^+ T cell responses to the 4 neoepitopes in unimmunized, tumor-bearing mice (Figure 2F). […] As controls, CD8 cells from mice bearing an antigenically irrelevant tumor (4T1) were tested for tetramer response to all 7 neoepitopes; no response was detected. Altogether, CD8^+ T cell responses in non-immunized tumor-bearing mice and immunized tumor-naive mice were often discordant.
# as §1
# [4] = test system: Meth A fibrosarcoma tumor cells; experiment: CD8 depletion in vivo during priming of neoepitope-immunized mice; parameters: species or system BALB/cJ mice; conditions: 250 μg anti-CD8 depleting antibody or isotype control 6 days before first immunization (priming phase)
# Procedure: CD8 dependence of neoepitope-elicited tumor immunity was tested in the case of the peptide TGAARFDEF (derived from Gtf2b) by depletion of neoepitope-immunized mice by anti-CD8 depleting antibody or an isotype control antibody during the priming phase alone, as described in the Methods. […] The kinetics of recovery of the depleted CD8^+ cells in mice is not uniform, resulting in lack of abrogation of immunity in 2 of the 5 mice. Because depletion of CD4^+ T cells results in depletion of helper as well as regulatory CD4^+ T cells, and the 2 effects are contradictory, depletion of CD4^+ cells was not attempted.
# BALB/cJ mice were injected with 250 μg of isotype control (InVivoMAb rat IgG2b isotype control, Bio X Cell) or CD8-depleting antibody (InVivoMAb anti–mouse CD8α, rat IgG2b, clone 2.43, Bio X Cell) antibodies 6 days before the first immunization (priming phase). The CD8^+ cells remained completely depleted in all mice until day 6; after that the recovery was variable.
# IFN-γ+ CD8+ cells = IFN-γ+ CD8+ cells from mice immunized with individual peptides; type: in vivo, BALB/cJ mice; conditions: data not shown
# [5] = neoepitope-pulsed BMDC immunization, 95,000 Meth A cells challenge
Sequence,CD8+ T cell response by tetramer staining (in words) (tetramer+ CD8+ T cells [2]),Tumor rejection activity (in words) [1],CD8+ T cell response by tetramer staining (in words) (tetramer+ CD8+ T cells [3]),also measured
AYMKMLSSSL,did not elicit a measurable CD8^+ response,–,–,"Immunized mice able to reject the tumor completely [1, 5]: 60%; Immunized mice with relatively prolonged tumor stabilization [1, 5]: 30%"
IGPRALDVL,good tetramer CD8^+ T cell response,intermediate tumor rejection,significant CD8^+ T cell response,–
IGPRAVDVL [reference compound],–,intermediate tumor rejection activity,–,"Tetramer+ cells (CD8+ T cell response), tissue not stated (tetramer+ CD8+ T cells [2]; immunized naive mice, 1 week after second immunization): ~ 0.35%"
TGAARFDEF,–,complete tumor rejection,could not detect a measurable CD8^+ T cell response,"CD8 dependence of neoepitope-elicited tumor immunity [4]: completely abolished the neoepitope-elicited tumor rejection in 3 of the 5 mice; Tetramer+ cells of total CD8+ T cells, blood (tetramer+ CD8+ T cells [2]; immunized naive mice): approximately 0.7%; Tetramer+ cells of total CD8+ T cells, spleen (tetramer+ CD8+ T cells [2]; immunized naive mice, spleen harvested 1 week after second immunization): ~0.43%; IFN-γ+ CD8+ cell response (IFN-γ+ CD8+ cells): a specific response was detected"
YIRPFETKVK,–,–,–,"Tumor Rejection Score (max score = 5) ([1]; BALB/cJ mice immunized with peptide-pulsed BMDCs, Meth A challenge, Table 2): 4.5"
KYLQVASHV,–,inactive,–,–
KYLQVASHVGL,strong CD8^+ T cell response,did not elicit tumor rejection,did not elicit such a response,–
VGPEILSSL,–,no tumor rejection,significant CD8^+ T cell response,"Tetramer+ cells of total CD8+ T cells, blood (tetramer+ CD8+ T cells [2]; immunized naive mice): approximately 10%"
SYLLGSGEARL,–,–,–,"Immunized mice able to reject the tumor completely [1, 5]: about 50%"
